Test [1] relates to HER2 overexpressed gastric cancer cell line. Description: In vivo anti-tumor effect, subcutaneous tumor transplant in nude mouse. The note with it: oral, daily except Saturday and Sunday, 2 to 4 weeks, read-out: Tumor growth inhibition ratio (%); for inhibition in vivo at 30 mg/kg: dosage 30 mg/kg; for inhibition in vivo at 100 mg/kg: dosage 100 mg/kg; for inhibition in vivo at 60 mg/kg: dosage 60 mg/kg. The procedure: The anti-tumor effect in vivo of a compound of the present invention was evaluated using a HER2 overexpressed gastric cancer cell line. Specifically, a tumor fragment with about 5 mm square was transplanted subcutaneously using a transplantation needle, or an appropriate number of tumor cells was suspended in saline (Otsuka Pharmaceutical Co., Ltd.) and transplanted under the skin of the right axillary region of a nude mouse using a glass syringe equipped with a two-stage needle for subcutaneous injection. After the confirmation of the engraftment of the transplanted tumors, the mice were classified into groups depending on the tumor volume. The test compounds: the Example Compounds 1-1, 1-2, 1-5, 1-8, 1-13, 1-14, 1-15, 1-19, 1-20, 1-22, 2-1, 2-3, and 3-2 were each dissolved or suspended in an appropriate medium and orally administered forcedly to a mouse. The period of administration was varied from 2 weeks to 4 weeks depending on tumor, and the administration was carried out daily with drug holidays of Saturday and Sunday. The major axis (mm) and the minor axis (mm) of a tumor were measured sequentially using an electronic digital vernier caliper, and evaluated by the tumor growth inhibition ratio (GI %) on the judgement day (in principle, the next day of the final administration) using the following calculating formula.
A: Average tumor volume on the judgement day of the group to which a compound was administered (*)
B: Average tumor volume on the judgement day of the untreated control group (*)
*: The tumor volume is calculated by ½×[major axis of tumor]×[minor axis of tumor]^2.

In test [2] the target is T1, purified human recombinant HER2 kinase (Lys676-Val1255, GST fusion) (Homo sapiens, UniProt P04626).
T1 construct: human recombinant HER2 kinase (Lys676-Val1255, GST fusion); GST
Description: HER2 kinase enzyme inhibitory activity (HTRF). The format is biochemical. The settings on record: 200 μM ATP, FLT3 analogous peptide substrate, 60 minutes at room temperature. The procedure: The HER2 kinase enzyme inhibitory activity of a compound of the present invention was evaluated by using a purified human recombinant HER2 kinase (Lys676-Val1255, GST fusion) and a synthetic peptide as a substrate, and detecting the phosphorylation level of the substrate by the HTRF method (homogeneous time resolved fluorescence method). Specifically, 25 ng/well of activated HER2, 200 μM of ATP, 200 ng/well of FLT3 analogous peptide (biotin label, peptide sequence is AGGSSDNEYFYVDF), and test compound (final concentration 0.01 nM to 30 μM) were mixed in kinase reaction buffer (60 mM HEPES, 5 mM MgCl2, 5 mM MnCl2, 3 mM Na3VO4, 1.25 mM DTT, pH 7.5) to prepare 50 μL/well of total reaction volume, and the mixture was reacted for 60 minutes at room temperature. Then, the phosphorylation reaction was stopped and HTRF reaction was carried out by adding 25 μL/well of PBS solution comprising the following components and reacting the mixture for 12 to 16 hours at 4° C. The following components were dissolved in PBS (pH 7.0) to prepare the PBS solution composition: 60 mM EDTA (final concentration 20 mM), 1.2 M KF (final concentration […]), 1 mg/mL BSA (final concentration 333 μg/mL), 6 μg/mL anti-PY20-Cryptate (Cisbio international, France, final concentration 2 μg/mL), and 15 μg/mL Streptavidin labeled with XL665 (Cisbio international, France, final concentration 5 μg/mL).

The test system of test [3] is HER2 overexpressed gastric cancer cell line NCI-N87. Put plainly: Cytotoxic activity (in vitro), CellTiter-Glo viable cell count. The note with it: Homo sapiens, NCI-N87, 72 h, NCI-N87, cultured for 72 hours. The class given is cell-based. The procedure: The cytotoxic activity of a compound of the present invention was investigated using a HER2 overexpressed gastric cancer cell line NCI-N87. Specifically, an appropriate amount of cells was seeded into a 96-well plate for cell culture at 50 μL/well, and precultured overnight at 37° C. under 5% —CO2 condition. A solution of a test compound in DMSO with dilution series was diluted with medium, and added to the precultured cells at the volume of 50 μL/well. The mixture was prepared such that the final concentration of DMSO became 0.1%. After the mixture was cultured for 72 hours at 37° C. under 5% —CO2 condition, 100 μL/well of CellTiter-Glo solution (Promega, Madison, Wis.) was added, the luminescence was measured using a luminometer (Wallac ARVO™ SX) 10 minutes later, and the viable cell count was determined.

pIC50: −log10 of the molar value.

Drawing on US20120149902A1, “PYRROLO[2,3-D]PYRIMIDINE DERIVATIVE” (UBE INDUSTRIES, LTD., priority 2009, published 2012), this text covers inhibition in vivo, IC50 and GI50 for 22 molecules.

T1 sequence (P04626 676-1255): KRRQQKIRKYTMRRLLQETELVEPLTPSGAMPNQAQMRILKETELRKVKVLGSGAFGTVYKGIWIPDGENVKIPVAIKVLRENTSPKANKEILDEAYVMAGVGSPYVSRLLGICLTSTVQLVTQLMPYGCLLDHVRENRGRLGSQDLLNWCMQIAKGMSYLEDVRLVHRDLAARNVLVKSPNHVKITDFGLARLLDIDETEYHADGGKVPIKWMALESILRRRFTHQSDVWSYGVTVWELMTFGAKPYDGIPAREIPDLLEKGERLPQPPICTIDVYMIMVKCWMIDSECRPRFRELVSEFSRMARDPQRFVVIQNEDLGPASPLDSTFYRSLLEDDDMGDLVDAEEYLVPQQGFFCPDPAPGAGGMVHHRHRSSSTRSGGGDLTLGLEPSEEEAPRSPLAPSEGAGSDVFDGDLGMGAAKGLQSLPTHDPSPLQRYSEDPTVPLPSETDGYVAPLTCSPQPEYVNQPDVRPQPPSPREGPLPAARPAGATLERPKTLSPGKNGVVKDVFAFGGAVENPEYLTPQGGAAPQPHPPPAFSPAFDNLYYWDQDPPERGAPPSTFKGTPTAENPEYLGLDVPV

With `C#Cc1cccc(Nc2ncnc3[nH]cc(CN4CCC(N)CC4)c23)c1` [Example 1-5, [5-(4-Aminopiperidin-1-ylmethyl)-7H-pyrrolo[2,3-d]pyrimidin-4-yl](3-ethynylphenyl)amine], the inhibition in vivo at 30 mg/kg in test [1] was 90%.

`COCC1(N)CCN(Cc2c[nH]c3ncnc(Nc4cccc(Br)c4)c23)CC1` [Example 1-16, [5-(4-Amino-4-methoxymethylpiperidin-1-ylmethyl)-7H-pyrrolo[2,3-d]pyrimidin-4-yl](3-bromophenyl)amine]: the pIC50 in test [2] was more than 8.00. Besides, the GI50 in test [3] was less than 20 nM.

Molecule `N[C@@H]1CCN(Cc2c[nH]c3ncnc(Nc4cccc(Br)c4)c23)C[C@H]1O` (relative stereo) [Example 2-3, trans-4-Amino-1-[4-(3-bromophenylamino)-7H-pyrrolo[2,3-d]pyrimidin-5-ylmethyl]piperidin-3-ol] came in with a GI50 in test [3] of less than 20 nM. Moreover, the inhibition in vivo at 100 mg/kg in test [1] stood at 76%.

In the case of `C#CCNC1CCN(Cc2c[nH]c3ncnc(Nc4cccc(C#C)c4)c23)CC1` [Example 3-2, (3-Ethynylphenyl) [5-(4-prop-2-ynylaminopiperidin-1-ylmethyl)-7H-pyrrolo[2,3-d]pyrimidin-4-yl]amine], the pIC50 in test [2] was more than 8.00. Besides, in test [3], the GI50 was less than 20 nM. Further, in test [1], the inhibition in vivo at 60 mg/kg was determined as 91%.

With `NC1CCN(Cc2c[nH]c3ncnc(Nc4ccc5[nH]ncc5c4)c23)CC1` [Example 1-9, [5-(4-Aminopiperidin-1-ylmethyl)-7H-pyrrolo[2,3-d]pyrimidin-4-yl](1H-indazol-5-yl)amine], the pIC50 in test [2] is 7.30 to 8.00. Also, the concentration for 50% growth inhibition (GI50) in test [3] was in the range of 50 to 500 nM.

For the molecule `CC1(N)CCN(Cc2c[nH]c3ncnc(Nc4cccc(Br)c4)c23)CC1` [Example 1-12, [5-(4-Amino-4-methylpiperidin-1-ylmethyl)-7H-pyrrolo[2,3-d]pyrimidin-4-yl](3-bromophenyl)amine], the pIC50 in test [2] was more than 8.00.

The molecule `NC1CCN(Cc2c[nH]c3ncnc(Nc4ccc5occc5c4)c23)CC1` [Example 1-1, [5-(4-Aminopiperidin-1-ylmethyl)-7H-pyrrolo[2,3-d]pyrimidin-4-yl]benzofuran-5-ylamine] had a GI50 in test [3] of 20 to 50 nM. Moreover, the inhibition in vivo at 60 mg/kg in test [1] stood at 84%.

Regarding `C#Cc1cccc(Nc2ncnc3[nH]cc(CN4CCC(NC)CC4)c23)c1` [Example 3-1, (3-Ethynylphenyl)[5-(4-methylaminopiperidin-1-ylmethyl)-7H-pyrrolo[2,3-d]pyrimidin-4-yl]amine], in test [2], the pIC50 was more than 8.00. Moreover, in test [3], the GI50 was less than 20 nM.

Turning to `COc1cccc(Nc2ncnc3[nH]cc(CN4CCC(C)(N)CC4)c23)c1` [Example 1-13, [5-(4-Amino-4-methylpiperidin-1-ylmethyl)-7H-pyrrolo[2,3-d]pyrimidin-4-yl](3-methoxyphenyl)amine], the pIC50 in test [2] was more than 8.00. Moreover, the inhibition in vivo at 30 mg/kg in test [1] was 72%.

`N[C@@H]1CCN(Cc2c[nH]c3ncnc(Nc4ccc5occc5c4)c23)C[C@H]1O` (relative stereo) [Example 2-2, trans-4-Amino-1-[4-(benzofuran-5-ylamino)-7H-pyrrolo[2,3-d]pyrimidin-5-ylmethyl]piperidin-3-ol]: the GI50 in test [3] lay within 20 to 50 nM.

As to `COCC1(N)CCN(Cc2c[nH]c3ncnc(Nc4ccc5occc5c4)c23)CC1` [Example 1-17, [5-(4-Amino-4-methoxymethylpiperidin-1-ylmethyl)-7H-pyrrolo[2,3-d]pyrimidin-4-yl](benzofuran-5-yl)amine], the pIC50 in test [2] was 7.00 to 7.30. In test [3], the GI50 is 20 to 50 nM.

For `C[C@@H]1CN(Cc2c[nH]c3ncnc(Nc4ccc(Cl)cc4)c23)CC[C@H]1N` (relative stereo) [Example 1-21, trans-[5-(4-Amino-3-methylpiperidin-1-ylmethyl)-7H-pyrrolo[2,3-d]pyrimidin-4-yl](4-chlorophenyl)amine], the pIC50 in test [2] was 7.00 to 7.30. This molecule also returned a GI50 in test [3] of 20 to 50 nM.

In turn, `N[C@@H]1CCN(Cc2c[nH]c3ncnc(Nc4ccc(F)c(Cl)c4)c23)C[C@H]1O` (relative stereo) [Example 2-1, trans-4-Amino-1-[4-(3-chloro-4-fluorophenylamino)-7H-pyrrolo[2,3-d]pyrimidin-5-ylmethyl]piperidin-3-ol] showed a GI50 in test [3] of 20 to 50 nM. Moreover, in test [1], the inhibition in vivo at 100 mg/kg was 52%.

As for `CC1CN(Cc2c[nH]c3ncnc(Nc4ccc(Cl)cc4)c23)CCC1N` (single isomer, unassigned; enantiomer 2) [Example 1-23, trans-[5-(4-Amino-3-methylpiperidin-1-ylmethyl)-7H-pyrrolo[2,3-d]pyrimidin-4-yl](4-chlorophenyl)amine [Enantiomer 2]], the negative logarithm of the IC50 (pIC50) in test [2] is not above 7.00.

On to `CC1CN(Cc2c[nH]c3ncnc(Nc4ccc(Cl)cc4)c23)CCC1N` (single isomer, unassigned; enantiomer 1) [Example 1-22, trans-[5-(4-Amino-3-methylpiperidin-1-ylmethyl)-7H-pyrrolo[2,3-d]pyrimidin-4-yl](4-chlorophenyl)amine [Enantiomer 1]], for which, in test [2], the pIC50 was 7.00 to 7.30. Besides, the inhibition in vivo at 60 mg/kg in test [1] is 88%.

In test [3], `NC1CCN(Cc2c[nH]c3ncnc(Nc4ccc(F)c(Cl)c4)c23)CC1` [Example 1-2, [5-(4-Aminopiperidin-1-ylmethyl)-7H-pyrrolo[2,3-d]pyrimidin-4-yl](3-chloro-4-fluorophenyl)amine] returned a GI50 of 20 to 50 nM. Moreover, in test [1], the inhibition in vivo at 30 mg/kg was 75%.

Turning to `NC1CCN(Cc2c[nH]c3ncnc(Nc4cc(F)cc(Br)c4)c23)CC1` [Example 1-11, [5-(4-Aminopiperidin-1-ylmethyl)-7H-pyrrolo[2,3-d]pyrimidin-4-yl](3-bromo-5-fluorophenyl)amine], in test [2], the negative-log IC50 (pIC50) was 7.30 to 8.00. Moreover, in test [3], the GI50 lay in the range of 20 to 50 nM.

As for `CNC1CCN(Cc2c[nH]c3ncnc(Nc4cccc(Br)c4)c23)CC1` [Example 1-18], in test [2], the pIC50 was more than 8.00. In test [3], this molecule showed a GI50 of less than 20 nM.

With `C#Cc1cccc(Nc2ncnc3[nH]cc(CN4CCC(C)(N)CC4)c23)c1` [Example 1-14, [5-(4-Amino-4-methylpiperidin-1-ylmethyl)-7H-pyrrolo[2,3-d]pyrimidin-4-yl](3-ethynylphenyl)amine], the pIC50 in test [2] was 7.30 to 8.00. In addition, the inhibition in vivo at 10 mg/kg in test [1] (dosage 10 mg/kg) is 75%.

In the case of `NC1CCN(Cc2c[nH]c3ncnc(Nc4cc(F)c(F)c(F)c4)c23)CC1` [Example 1-7, [5-(4-Aminopiperidin-1-ylmethyl)-7H-pyrrolo[2,3-d]pyrimidin-4-yl](3,4,5-trifluorophenyl)amine], in test [2], the pIC50 is 7.30 to 8.00. Moreover, the GI50 in test [3] was less than 20 nM.

With `Cc1ccc(Nc2ncnc3[nH]cc(CN4CCC(N)CC4)c23)cc1Br` [Example 1-6, [5-(4-Aminopiperidin-1-ylmethyl)-7H-pyrrolo[2,3-d]pyrimidin-4-yl](3-bromo-4-methylphenyl)amine], in test [2], the pIC50 was more than 8.00. In test [3], this molecule returned a GI50 of 20 to 50 nM.

On to `NC1CCN(Cc2c[nH]c3ncnc(Nc4ccc(Cl)c(Cl)c4)c23)CC1` [Example 1-10, [5-(4-Aminopiperidin-1-ylmethyl)-7H-pyrrolo[2,3-d]pyrimidin-4-yl](3,4-dichlorophenyl)amine], for which, in test [2], the pIC50 was more than 8.00. In test [3], this molecule came in with a 50% growth inhibitory concentration (GI50) of 20 to 50 nM.
